pIC50: −log10 of the molar value.

Chain of IDO1 (P14902 whole entry): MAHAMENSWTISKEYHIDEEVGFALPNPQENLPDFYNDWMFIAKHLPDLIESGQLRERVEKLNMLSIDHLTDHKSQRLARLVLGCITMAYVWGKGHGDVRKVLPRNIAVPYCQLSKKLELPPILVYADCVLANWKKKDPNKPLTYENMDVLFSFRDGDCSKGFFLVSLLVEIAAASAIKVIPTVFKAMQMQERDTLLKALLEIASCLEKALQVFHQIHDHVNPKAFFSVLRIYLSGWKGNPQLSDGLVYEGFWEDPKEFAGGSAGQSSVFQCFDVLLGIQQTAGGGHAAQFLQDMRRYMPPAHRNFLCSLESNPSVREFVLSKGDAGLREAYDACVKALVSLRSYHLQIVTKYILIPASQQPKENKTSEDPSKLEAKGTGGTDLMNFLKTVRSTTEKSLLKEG

In this test the target is IDO1 (Homo sapiens, UniProt P14902). Kind of test: IDO1 Human Whole Blood Assay. The format is cell-based. Particulars: LPS and IFNγ 100 ng/mL, overnight (18 h), kynurenine by LC/MS/MS, read-out: Human Whole Blood Potency, IC50. As to the method:
IDO1 Human Whole Blood Assay Compounds to be tested were serially diluted in ten 3-fold steps in DMSO starting from 10 mM. 3 μL of compound dilutions or DMSO alone were then dispensed from the dilution plate into a polypropylene 96-well assay plate containing 97 μL of RPMI using an Echo 555 acoustic liquid handler (Labcyte). LPS and IFNγ was prepared in RPMI to a 10× of final conc. (1000 ng/mL), final concentration is 100 ng/mL. […] 240 μL of blood was transferred to each of the wells of a v-bottom 96 well plate. 30 μL of compound was transferred from intermediate dilution plate, and incubated for 15 min. 30 μL from stimulants was then transferred to blood and mixed thoroughly. Plate was covered with breathable membrane and incubated at 37° C. for overnight (18 h). […] Plasma was diluted with RPMI in 1:1 ratio and proteins were precipitated out with two volume of Acetonitrile. The plates were centrifuged at 4000×G for 60 min. 20 μL of supernatant was carefully transferred to a 384 well plate contain 40 μL of 0.1% formic acid in water and analyzed by LC/MS/MS. LC/MS/MS analyses were performed using Thermo Fisher's LX4-TSQ Quantum Ultra system. This system consists of four Agilent binary high-performance liquid chromatography (HPLC) pumps and a TSQ Quantum Ultra triple quadrupole MS/MS instrument. For each sample, 5 μL were injected onto an Atlantis T3 column (2.1 mm×150 mm, 3 μm particle size) from Waters. The mobile phase gradient pumped at 0.8 mL/min was used to elute the analytes from the column at 25° C. The elution started at 0% B increasing linearly to 25% B at 6.5 min, holding at 25% for 1 min, re-equilibrating to 10 min. Mobile phase A consisted of 0.1% formic acid in water. Mobile phase B consisted of 0.1% of formic acid in acetonitrile. Data was acquired in positive mode using a HESI interface. The operational parameters for the TSQ Quantum Ultra instrument were a spray voltage of 4000 V, capillary temperature of 380° C., vaporizer temperature 400° C., shealth gas 60 arbitrary units, Aux gas 20 arbitrary units, tube lens 85 and collision gas 1.2 mTorr. SRM chromatograms of kynurenine (Q1: 209.2>Q3:94.0) and internal standard (Q1: 215.3>Q3:98.2) were collected for 90 sec. The peak area was integrated by Xcalibur Quan software. […] Compounds were titrated and IC50's were calculated by 4 parameter sigmoidal curve fitting formula.
With `Cc1cccc(N2CCC(C(F)Cn3nc(C(=O)N4C[C@@H](C)O[C@@H](C)C4)c4c3CCC4)CC2)c1C` (single isomer, unassigned) [Example 48], the pIC50 (usually the negative decadic logarithm of the IC50, by convention in mol/L) is 6.02.

Take `Cc1c(F)ccc(C2CCC(CCn3nc(C(=O)N4CCN(C(=O)CO)CC4)c4c3CCC4)CC2)c1C` (single isomer, unassigned) [Example 49, 1-(4-(1-(2-(4-(4-fluoro-2,3-dimethylphenyl)cyclohexyl)ethyl)-1,4,5,6-tetrahydrocyclopenta[c]pyrazole-3-carbonyl)piperazin-1-yl)-2-hydroxyethan-1-one]: the pIC50 is 6.75.

For the compound `Cc1c(F)ccc(C2CCC(CCn3nc(C(=O)N4CCC(F)(CO)CC4)c4c3CCC4)CC2)c1C` (single isomer, unassigned) [Example 52, (1-(2-(4-(4-fluoro-2,3-dimethylphenyl)cyclohexyl)ethyl)-1,4,5,6-tetrahydrocyclopenta[c]pyrazol-3-yl)(4-fluoro-4-(hydroxymethyl)piperidin-1-yl)methanone], the pIC50 is 6.35.

Turning to `Cc1cccc(C2CCC(CCn3nc(C(=O)N4CCC(O)CC4)c4c3CCC4)CC2)c1C` (single isomer, unassigned) [Example 95, (1-(2-(4-(2,3-dimethylphenyl)cyclohexyl)ethyl)-1,4,5,6-tetrahydrocyclopenta[c]pyrazol-3-yl)(4-hydroxypiperidin-1-yl)methanone], the pIC50 was 6.78.

In the case of `Cc1cccc(C2CCC(CCn3nc(C(=O)N4CCC(O)CC4)c4c3CCC4)CC2)c1C` (single isomer, unassigned) [Example 96, (1-(2-(4-(2,3-dimethylphenyl)cyclohexyl)ethyl)-1,4,5,6-tetrahydrocyclopenta[c]pyrazol-3-yl)(4-hydroxypiperidin-1-yl)methanone], the pIC50 is 6.48.

Consider `Cc1cccc(N2CCC(CCn3nc(C(=O)N4CCC(O)CC4)c4c3CCC4)CC2)c1C` [Example 1, (1-(2-(1-(2,3-dimethylphenyl)piperidin-4-yl)ethyl)-1,4,5,6-tetrahydrocyclopenta[c]pyrazol-3-yl)(4-hydroxypiperidin-1-yl)methanone], for which the pIC50 was 6.47.

On to `Cc1c(F)ccc(N2CCC(CCn3nc(C(=O)N4CCC(F)(CO)CC4)c4c3CCC4)CC2)c1C` [Example 8, (1-(2-(1-(4-fluoro-2,3-dimethylphenyl)piperidin-4-yl)ethyl)-1,4,5,6-tetrahydrocyclopenta[c]pyrazol-3-yl)(4-fluoro-4-(hydroxymethyl)piperidin-1-yl)methanone], for which the pIC50 was 6.60.

For `Cc1c(F)ccc(N2CCC(CCn3nc(C(=O)N4CCN(C(=O)CO)CC4)c4c3CCC4)CC2)c1C` [Example 11, 1-[4-[1-[2-[1-(4-fluoro-2,3-dimethyl-phenyl)piperidin-1-ium-4-yl]ethyl]-5,6-dihydro-4H-cyclopenta[c]pyrazole-3-carbonyl]piperazin-1-yl]-2-hydroxy-ethanone], the pIC50 is 6.10.

As for `CC(=O)NC1CCN(C(=O)c2nn(CCC3CCN(c4ccc(F)c(F)c4C)CC3)c3c2CCCC3)CC1` [Example 18, N-[1-[1-[2-[1-(3,4-difluoro-2-methyl-phenyl)-4-piperidyl]ethyl]-4,5,6,7-tetrahydroindazole-3-carbonyl]-4-piperidyl]acetamide], the pIC50 was 6.36.

Regarding `CC(=O)NC1CCN(C(=O)c2nn(CCC3CCN(c4cccc(Cl)c4C)CC3)c3c2CCCC3)CC1` [Example 20, N-[1-[1-[2-[1-(3-chloro-2-methyl-phenyl)-4-piperidyl]ethyl]-4,5,6,7-tetrahydroindazole-3-carbonyl]-4-piperidyl]acetamide], the pIC50 is 6.54.

As for `CC(=O)NC1CCN(C(=O)c2nn(CCC3CCN(c4nccc(C(F)(F)F)c4F)CC3)c3c2CCCC3)CC1` [Example 35, N-[1-[1-[2-[1-[3-fluoro-4-(trifluoromethyl)-2-pyridyl]-4-piperidyl]ethyl]-4,5,6,7-tetrahydroindazole-3-carbonyl]-4-piperidyl]acetamide], the pIC50 is 6.03.

`Cc1c(Cl)cccc1O[C@H]1CC[C@@H](CCn2nc(C(=O)N3C[C@@H](C)O[C@@H](C)C3)c3c2CCC3)CC1` [Example 53, (1-(2-((1s,4S)-4-(3-chloro-2-methylphenoxy)cyclohexyl)ethyl)-1,4,5,6-tetrahydrocyclopenta[c]pyrazol-3-yl)((2R,6S)-2,6-dimethylmorpholino)methanone]: the pIC50 is 6.09.

Consider `Cc1ccc(Cl)c(O[C@H]2CC[C@@H](CCn3nc(C(=O)N4CCN(C(=O)CO)CC4)c4c3CCC4)CC2)c1` [Example 57, 1-(4-(1-(2-((1s,4s)-4-(2-chloro-5-methylphenoxy)cyclohexyl)ethyl)-1,4,5,6-tetrahydrocyclopenta[c]pyrazole-3-carbonyl)piperazin-1-yl)-2-hydroxyethan-1-one], for which the pIC50 was 6.29.

`Cc1ccc(Cl)c(O[C@H]2CC[C@@H](CCn3nc(C(=O)N4CCC(F)(CO)CC4)c4c3CCC4)CC2)c1` [Example 58, (1-(2-((1s,4s)-4-(2-chloro-5-methylphenoxy)cyclohexyl)ethyl)-1,4,5,6-tetrahydrocyclopenta[c]pyrazol-3-yl)(4-fluoro-4-(hydroxymethyl)piperidin-1-yl)methanone]: the pIC50 was 6.27.

`CC(=O)NC1CCN(C(=O)c2nn(CC[C@H]3CC[C@@H](Oc4ccccc4C)CC3)c3c2CCC3)CC1` [Example 61, N-(1-(1-(2-((1s,4s)-4-(2-methylphenoxy)cyclohexyl)ethyl)-1,4,5,6-tetrahydrocyclopenta[c]pyrazole-3-carbonyl)piperidin-4-yl)acetamide]: the pIC50 was 7.51.

For `CC(=O)NC1CCN(C(=O)c2nn(CC[C@H]3CC[C@@H](Oc4cnccc4C)CC3)c3c2CCC3)CC1` [Example 64, N-(1-(1-(2-((1s,4s)-4-((4-methylpyridin-3-yl)oxy)cyclohexyl)ethyl)-1,4,5,6-tetrahydrocyclopenta[c]pyrazole-3-carbonyl)piperidin-4-yl)acetamide], the pIC50 is 6.67.

Take `CC(=O)NC1CCN(C(=O)c2nn(CC[C@H]3CC[C@@H](Oc4ccccc4C(F)(F)F)CC3)c3c2CCC3)CC1` [Example 65, N-(1-(1-(2-((1s,4s)-4-(2-(trifluoromethyl)phenoxy)cyclohexyl)ethyl)-1,4,5,6-tetrahydrocyclopenta[c]pyrazole-3-carbonyl)piperidin-4-yl)acetamide]: the pIC50 is 6.89.

`CC(=O)NC1CCN(C(=O)c2nn(CC[C@H]3CC[C@@H](Oc4nccc(C)c4C#N)CC3)c3c2CCC3)CC1` [Example 66, N-(1-(1-(2-((1s,4s)-4-((3-cyano-4-methylpyridin-2-yl)oxy)cyclohexyl)ethyl)-1,4,5,6-tetrahydrocyclopenta[c]pyrazole-3-carbonyl)piperidin-4-yl)acetamide]: the pIC50 was 6.81.

Consider `CC(=O)NC1CCN(C(=O)c2nn(CC[C@H]3CC[C@@H](Oc4ccc(C)nc4C)CC3)c3c2CCC3)CC1` [Example 67, N-(1-(1-(2-((1s,4s)-4-((2,6-dimethylpyridin-3-yl)oxy)cyclohexyl)ethyl)-1,4,5,6-tetrahydrocyclopenta[c]pyrazole-3-carbonyl)piperidin-4-yl)acetamide], for which the pIC50 was 6.68.

`CC(=O)NC1CCN(C(=O)c2nn(CC[C@H]3CC[C@@H](Oc4cnc(C)nc4C)CC3)c3c2CCC3)CC1` [Example 68, N-(1-(1-(2-((1s,4s)-4-((2,4-dimethylpyrimidin-5-yl)oxy)cyclohexyl)ethyl)-1,4,5,6-tetrahydrocyclopenta[c]pyrazole-3-carbonyl)piperidin-4-yl)acetamide]: the pIC50 is 6.29.

Take `CC(=O)NC1CCN(C(=O)c2nn(CC[C@H]3CC[C@@H](Oc4ccccc4Cl)CC3)c3c2CCC3)CC1` [Example 70, N-[1-[1-[2-[4-(2-chlorophenoxy)cyclohexyl]ethyl]-5,6-dihydro-4H-cyclopenta[c]pyrazole-3-carbonyl]-4-piperidyl]acetamide]: the pIC50 was 6.79.

For the compound `CC(=O)NC1CCN(C(=O)c2nn(CC[C@H]3CC[C@@H](Oc4ncccc4C)CC3)cc2C2CC2)CC1` [Example 74, N-(1-(4-cyclopropyl-1-(2-((1s,4s)-4-((3-methylpyridin-2-yl)oxy)cyclohexyl)ethyl)-1H-pyrazole-3-carbonyl)piperidin-4-yl)acetamide], the pIC50 is 6.75.

With `CC(=O)NC1CCN(C(=O)c2nn(C[C@@H]3C[C@@H](Oc4ccc(Cl)cn4)CCO3)c3c2CC(F)(F)CC3)CC1` [Example 77, 6-{3-[4-(acetylamino)piperidine-1-carbonyl]-5,5-difluoro-4,5,6,7-tetrahydro-1H-indazol-1-yl}-1,5-anhydro-3-O-(5-chloropyridin-2-yl)-2,4,6-trideoxy-D-erythro-hexitol], the pIC50 is 6.87.

Values taken from US12152019B2, “Arylalkyl pyrazole compounds as indoleamine 2,3-dioxygenase inhibitors” (Merck Sharp & Dohme LLC, priority 2018, dated 2024).
